Test results from patent publication US7951979B2, “2,4,6-trisubstituted phenols having anesthetic properties” (University of Iowa Research Foundation, priority 2006, dated 2011).

Columns and labels:
GABA receptors = assay: in vitro assay for direct GABA activation; assay type: cell-based; conditions: FIG. 2
Source text: Propofol and analogs are known to activate GABA receptors (see, e.g., Trapani et al., J. Med. Chem. 1998, 41, 1846-1854, incorporated herein by reference). While the relationship between GABA activation and anesthetic activity is not completely clear, it is believed that the ability of a compound to directly activate GABA receptors may be related to the anesthetic, sedative, and/or anxiolytic activity of the compound. Compounds of the invention can be tested in in vitro electrophysiological assays to determine the ability of the compound to activate GABA receptors.
Compound 1 was synthesized as described in Example 1. The compound was tested in an in vitro assay for direct GABA activation.

rats = assay: i.v. injection into the lateral tail vein of rats, loss of righting reflex / anesthesia
Method: Compound 1 was formulated in 16% Cremophor EL solution in water at a concentration of approximately 15 mg/ml and tested in rats as follows.
Approximately 15 mg/kg of Compound 1 in the suspension were injected into the lateral tail vein of two rats (weight 330-340 g).

[1] = Rat 1, approximately 15 mg/kg i.v. (lateral tail vein), 16% Cremophor EL in water
[2] = rat, conditions similar to Example 2 (similar dose and route of administration)

CC(C)c1cc(C(O)C(F)(F)F)cc(C(C)C)c1O (stereo not drawn) [Compound 1, 2,6-diisopropyl-4-(2,2,2-trifluoro-1-hydroxy-ethyl)-phenol] was tested, and the “direct activation of GABA receptors” value (GABA receptors) was “capable of direct activation of GABA receptors”, the “time post-injection at which the rat appeared normal” value (rats; [1]) was “about 7.5 minutes” and the “total time of loss of righting reflex” value (rats; [1]) was “about 3.5 minutes”. For the same molecule, the “total time of loss of righting reflex” value (rats; Rat 2 (agitated prior to injection), approximately 15 mg/kg i.v. (lateral tail vein), 16% Cremophor EL in water) was “about 2.0 minutes”, the duration of anesthesia (rats; rats, about 15 mg/kg i.v.) was 2 to 3 min and the “tremors, agitation or excitement on injection” value (rats; rats, about 15 mg/kg i.v.) was “without tremors, agitation or excitement”. The overall anesthetic activity (rats; rats, i.v.) was “potent short-acting i.v. anesthetic”.

In the case of CC(C)c1cc(C(=O)C(F)(F)F)cc(C(C)C)c1O [Compound 2, 2,2,2-trifluoro-1-(4-hydroxy-3,5-diisopropyl-phenyl)-ethanone], the induction of anesthesia (rats; [2]) was “did not appear to induce anesthesia” and the “tremors and shaking upon i.v. injection” value (rats; [2]) was “caused tremors and shaking”.
